Results: ChEMBL document CHEMBL1201862, “PubChem BioAssay data set” (2004)
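Five concentrations, 48 hours, 96-well plates. Abbreviation: GI50, concentration required for 50% inhibition of growth.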 Calls of active or inactive are those of the source. No stated cut-off is given here; in the data, active = GI50 up to about 1.1 µM and inactive = higher.

How the values were obtained:
Test in all cases: NCI tumour cell line growth inhibition, 48 h
[1] = tested on: SK-OV-3
[2] = tested on: HOP-62
[3] = tested on: MCF7
[4] = tested on: SK-MEL-28
[5] = tested on: HCT-116
[6] = tested on: A549
[7] = tested on: RXF 393
[8] = tested on: T47D
[9] = tested on: BT-549
[10] = tested on: NCI-H23
[11] = tested on: UACC-62
[12] = tested on: SN12C
[13] = tested on: Malme-3M
[14] = tested on: PC-3
[15] = tested on: IGROV-1
[16] = tested on: EKVX
[17] = tested on: NCI-H226
[18] = tested on: UACC-257
[19] = tested on: DU-145
[20] = tested on: OVCAR-8

Row | SMILES | GI50 [1] | GI50 [2] | GI50 [3] | GI50 [4] | GI50 [5] | GI50 [6] | GI50 [7] | GI50 [8] | GI50 [9] | GI50 [10] | GI50 [11] | GI50 [12] | GI50 [13] | GI50 [14] | GI50 [15] | GI50 [16] | GI50 [17] | GI50 [18] | GI50 [19] | GI50 [20]
1 | COCN1C(=O)[C@@H]2CCCN2C(=O)c2cc([N+](=O)[O-])ccc21 | 44.7 µM (inactive) | 41.1 µM (inactive) | 46.3 µM (inactive) | > 100 µM (inactive) | 86.9 µM (inactive) | 88.3 µM (inactive) | 19 µM (inactive) | 45.7 µM (inactive) | 62.5 µM (inactive) | 86.7 µM (inactive) | 85.7 µM (inactive) | > 100 µM (inactive) | 88.5 µM (inactive) | 36.3 µM (inactive) | 35.5 µM (inactive) | > 100 µM (inactive) | 2.21 µM (inactive) | > 100 µM (inactive) | 39.8 µM (inactive) | > 100 µM (inactive)
2 | COc1cccc(/C=N/[N+](C)(C)C)c1O | > 10 µM (inactive) | > 10 µM (inactive) | > 10 µM (inactive) | > 10 µM (inactive) | > 10 µM (inactive) | > 10 µM (inactive) | > 10 µM (inactive) | > 10 µM (inactive) | > 10 µM (inactive) | 2.22 µM (inactive) | > 10 µM (inactive) | > 10 µM (inactive) | > 10 µM (inactive) | > 10 µM (inactive) | > 10 µM (inactive) | > 10 µM (inactive) | > 10 µM (inactive) | > 10 µM (inactive) | > 10 µM (inactive) | > 10 µM (inactive)
3 | CCCC(=O)n1[nH]c(=O)n(C(C)(C)C)c1=O | > 100 µM (inactive) | > 100 µM (inactive) | > 100 µM (inactive) | > 100 µM (inactive) | > 100 µM (inactive) | > 100 µM (inactive) | > 100 µM (inactive) | > 100 µM (inactive) | > 100 µM (inactive) | > 100 µM (inactive) | > 100 µM (inactive) | > 100 µM (inactive) | 44.1 µM (inactive) | > 100 µM (inactive) | > 100 µM (inactive) | > 100 µM (inactive) | > 100 µM (inactive) | > 100 µM (inactive) | > 100 µM (inactive) | > 100 µM (inactive)
4 | CC#CC(O)(C(=O)OC1CC(C)N(C)C(C)(C)C1)C1CCCC1 (stereo not given) | > 100 µM (inactive) | > 100 µM (inactive) | > 100 µM (inactive) | > 100 µM (inactive) | > 100 µM (inactive) | > 100 µM (inactive) | > 100 µM (inactive) | > 100 µM (inactive) | > 100 µM (inactive) | > 100 µM (inactive) | > 100 µM (inactive) | > 100 µM (inactive) | > 100 µM (inactive) | > 100 µM (inactive) | > 100 µM (inactive) | > 100 µM (inactive) | > 100 µM (inactive) | > 100 µM (inactive) | > 100 µM (inactive) | > 100 µM (inactive)
5 | COc1cc(-c2[nH]ccc2Cl)oc1C1=C2N=C3C=C2C(C(C)C)C1CCCCCCCC3 (stereo not given) | 1.6 µM (inactive) | 0.774 µM (active) | 0.603 µM (active) | 1.35 µM (inactive) | 0.307 µM (active) | 0.912 µM (active) | 0.904 µM (active) | 0.272 µM (active) | 1.1 µM (active) | 0.738 µM (active) | 0.794 µM (active) | 0.94 µM (active) | 1.09 µM (active) | 0.332 µM (active) | 0.993 µM (active) | 0.944 µM (active) | 1.06 µM (active) | 1.29 µM (inactive) | 0.614 µM (active) | 0.805 µM (active)
6 | COc1ccc(NC(=O)CC(=O)NNC(Sc2ccccc2)c2cc(/N=N/c3ccc(Br)cc3)ccc2O)cc1 (stereo not given) | > 10 µM (inactive) | > 10 µM (inactive) | > 10 µM (inactive) | > 10 µM (inactive) | 4.81 µM (inactive) | > 10 µM (inactive) | > 10 µM (inactive) | > 10 µM (inactive) | > 10 µM (inactive) | > 10 µM (inactive) | > 10 µM (inactive) | 7.52 µM (inactive) | > 10 µM (inactive) | > 10 µM (inactive) | > 10 µM (inactive) | > 10 µM (inactive) | 2.74 µM (inactive) | > 10 µM (inactive) | > 10 µM (inactive) | > 10 µM (inactive)
7 | O=C(COc1ccc(Cl)c(Cl)c1)Nc1ccc[n+](Cc2ccc(S(=O)(=O)F)c(Cl)c2)c1 | > 100 µM (inactive) | > 100 µM (inactive) | > 100 µM (inactive) | > 100 µM (inactive) | > 100 µM (inactive) | > 100 µM (inactive) | > 100 µM (inactive) | > 100 µM (inactive) | > 100 µM (inactive) | > 100 µM (inactive) | > 100 µM (inactive) | 98.4 µM (inactive) | 51.2 µM (inactive) | > 100 µM (inactive) | > 100 µM (inactive) | > 100 µM (inactive) | > 100 µM (inactive) | > 100 µM (inactive) | > 100 µM (inactive) | > 100 µM (inactive)
